This is an account of results in patent publication US6194581A, “Substituted pyridines useful as modulators of acetylcholine receptors” (Merck & Co., Inc., priority 1998, dated 2001).

For test [1], the target named is T1, nicotinic acetylcholine receptor (Rattus norvegicus, UniProt P09483+P12390).
T1 construct: Synaptic membranes were prepared by homogenizing the cortical tissue; from tissue; host or cells: cerebral cortex synaptic membranes of male Sprague-Dawley rats
The test is described as follows: 3H-nicotine binding/displacement, rat cerebral membranes. On the procedure: ^3 H-Nicotine binding to rat cerebral membranes was performed according to modifications of the method of Flyn and Mash (J. Neurochem. 47:1948 (1986)). ^3 H-Nicotine (80 ci/mmol; New England Nuclear Corporation, Boston, Mass.) was used as the ligand for nicotinic acetylcholine receptor binding assays. All other reagents were purchased from the Sigma Chemical Co. (St. Louis, Mo.).
Male Sprague-Dawley rats (250-400 gm) were sacrificed by decapitation, the brains removed and the cerebral cortex dissected on ice. Synaptic membranes were prepared by homogenizing the cortical tissue in 20 volumes of ice-cold modified Tris buffer (50 mM Tris pH 7.4, 120 mM NaCl, 5 mM KCl, 2 mM EDTA, 1 mM PMSF) with a polytron (20 sec at setting 5-6) followed by centrifugation (15 min at 25,000×g) at 4° C. The resultant pellet was rehomogenized and centrifuged twice. The final pellet was resuspended in ice-cold assay buffer (50 mM Tris pH 7.4, 120 mM NaCl, 5 mM KCl, 2 mM CaCl2, 1 MM MgCl2) at a concentration of membrane equivalent to 1 gm wet weight cortex per 10 ml buffer. After protein determination the final membrane preparation was diluted with buffer to 3 mg protein/ml. This membrane preparation was used in either the fresh state or frozen (-70° C.) then thawed.
The binding assay is performed manually using 96-well plates, or using a Biomek automated work station (Beckman Instrument Co.). ^3 H-Nicotine was diluted in assay buffer to give a final concentration of 1.9 nM. The Biomek automated work station was programmed to automatically transfer 750 μl of assay buffer with ^3 H-nicotine, 230 μl of membrane preparation and 20 μl of solution containing the compound of interest in assay buffer, DMSO, ethanol:DMSO (1:1) or appropriate vehicle to the 96-well plate. Atropine was added to the incubation buffer at a final concentration of 3 μM to block binding to muscarinic acetylcholine receptor sites. The plates were maintained on ice for 60 min and the tissue-bound radioactivity was separated from the free by rapid filtration in a Brandel Harvester onto GF/C filters presoaked in 0.5% polyethyleneimine for at least 2 hr. The filters were washed with 4×2 ml of ice-cold assay buffer and filters were transferred to vials to which 4 ml of scintillation cocktail was added. The radioactivity was measured in a LS-6500 Beckman Liquid Scintillation Counter in an autodpm mode. Data were analyzed by log-logit transformation or non-linear regression analysis (e.g., employing GraphPad Prism, available from GraphPad Software, San Diego, Calif.) to give IC50 values. Non-specific binding was defined by 10 μM cytisine.

Test [2] concerns the target muscarinic acetylcholine receptors. The test is described as follows: 3H-QNB (quinuclidinyl benzilate) displacement, rat cerebral membranes. Type of test: binding.
Test [3] concerns rat olfactory tubercles (3H-dopamine release). The test is classed as cell-based. On the procedure:
(§1) Measurement of ^3 H-dopamine release from rat striatal slices was performed according to the method of Sacaan et al. (J. Neurochem. 59:245 (1992)). Male Sprague-Dawley rats (250-300 g) were decapitated and the striata or olfactory tubercles dissected quickly on a cold glass surface. The tissue was chopped to a thickness of 300 μm with a McIlwain tissue chopper. After chopping again at right angles the tissue was dispersed and incubated for 10 min. at 37° C. in oxygenated Kreb's buffer. ^3 H-Dopamine (40 Ci/mmol, NEN- Dupont, Boston, Mass.) was added (50 nM) and the tissue was incubated for 30 min. in Kreb's buffer containing 10 μM pargyline and 0.5 mM ascorbic acid. Aliquots of the minced tissue were then transferred to chambers of a Brandel Superfusion system in which the tissue was supported on Whatman GF/B filter discs. The tissue was then superfused with buffer at a constant flow rate of 0.3 ml/min by means of a Brandel peristaltic pump. The perfusate was collected in plastic scintillation vials in 3-min fractions, and the radioactivity was estimated by scintillation spectrophotometry. The superfusate for the first 120 min was discarded. After two baseline fractions had been collected, the superfusion buffer was switched to fresh buffer with or without compound of interest. At the end of the experiment the filter and the tissue were removed, and the radiolabeled neurotransmitter content was estimated after extraction into scintillation fluid. The fractional effiux of radiolabeled neurotransmitter was estimated as the amount of radioactivity in the perfusate fraction relative to the total amount in the tissue.
(§2) The results of studies of the effects of an invention compound (as compared to the effect of nicotine) on the release of neurotransmitters from rat brain slices are presented in Table II. The results presented in the Table are expressed as the percent fractional release.

Test [4] deals with rat striatal slices (3H-dopamine release). Type of test: cell-based. On the procedure:
as §1, §2

In test [5] the test system is rat hippocampus slices (3H-norepinephrine release). The test is classed as cell-based. The procedure: as §1
(§3) Following essentially the same procedure as set forth in the preceding paragraph, the amount of ^3 H-norepinephrine released from rat hippocampus, thalamus and prefrontal cortex slices superfused with buffer containing (or lacking) compounds of interest was also measured.
as §2

Test [6] concerns rat prefrontal cortex slices (3H-norepinephrine release). The test is classed as cell-based. The procedure: as §1, §3, §2
Test [7] relates to rat thalamus slices (3H-norepinephrine release). Type of test: cell-based. The procedure:
as §1, §3, §2

The mark [8] stands for this setting: displacement of 1.9 nM 3H-nicotine, rat cerebral membranes, 3 μM atropine, read-out: IC50, Nicotine.
[9] abbreviates: displacement of 60 pM 3H-QNB, rat cerebral membranes.
Setting [10] is: rat olfactory tubercles, compound concentration not given.
Where [11] appears, read: rat striatum slices, compound concentration not given.
Where [12] appears, read: rat hippocampus slices, compound concentration not given.
[13] abbreviates: rat prefrontal cortex slices, compound concentration not given.
The mark [14] stands for this setting: rat thalamus slices, compound concentration not given.

Where a name gives a salt, the structure may show the parent alone. Read-outs that look alike come from different tables or passages of the source.

For orientation: IC50 means the concentration that gives 50% inhibition.

T1 sequence (P09483 31-630): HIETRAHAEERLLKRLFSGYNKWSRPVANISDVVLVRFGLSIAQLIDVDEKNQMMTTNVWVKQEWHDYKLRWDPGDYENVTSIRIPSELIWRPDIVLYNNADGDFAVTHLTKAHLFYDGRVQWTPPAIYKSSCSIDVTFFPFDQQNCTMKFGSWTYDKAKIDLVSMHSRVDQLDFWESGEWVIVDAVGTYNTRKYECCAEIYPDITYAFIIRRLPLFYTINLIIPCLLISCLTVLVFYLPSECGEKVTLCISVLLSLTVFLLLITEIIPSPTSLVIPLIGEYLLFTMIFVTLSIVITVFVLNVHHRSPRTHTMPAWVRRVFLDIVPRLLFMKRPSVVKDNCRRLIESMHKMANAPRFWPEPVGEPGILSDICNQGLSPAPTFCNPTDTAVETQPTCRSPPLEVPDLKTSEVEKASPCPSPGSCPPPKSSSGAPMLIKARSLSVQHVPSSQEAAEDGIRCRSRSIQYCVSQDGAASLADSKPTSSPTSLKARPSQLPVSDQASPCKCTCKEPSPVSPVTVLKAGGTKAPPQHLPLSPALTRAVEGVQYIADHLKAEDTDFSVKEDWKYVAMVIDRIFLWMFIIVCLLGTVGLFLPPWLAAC
T1 sequence (P12390 26-500 limits assumed): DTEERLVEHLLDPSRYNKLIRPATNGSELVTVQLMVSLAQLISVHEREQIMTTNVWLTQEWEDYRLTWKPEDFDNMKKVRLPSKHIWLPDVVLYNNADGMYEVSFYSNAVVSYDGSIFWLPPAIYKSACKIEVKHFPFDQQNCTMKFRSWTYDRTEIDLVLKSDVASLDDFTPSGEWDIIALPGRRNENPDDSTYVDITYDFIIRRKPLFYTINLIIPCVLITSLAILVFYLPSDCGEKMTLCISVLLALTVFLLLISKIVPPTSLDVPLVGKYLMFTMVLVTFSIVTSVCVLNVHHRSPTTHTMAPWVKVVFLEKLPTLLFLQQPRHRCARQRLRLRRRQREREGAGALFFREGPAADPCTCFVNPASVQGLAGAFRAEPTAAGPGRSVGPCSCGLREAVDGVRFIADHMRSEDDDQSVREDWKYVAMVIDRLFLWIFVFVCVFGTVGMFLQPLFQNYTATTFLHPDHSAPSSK

For `Oc1ccc(-c2cncc(CN3CCCC3)c2)cc1Cl` [5-(4-Hydroxy-3-chlorophenyl)-3-(N-pyrrolidinomethyl)pyridine], the IC50 in test [1] (setting [8]) is 0.043 µM; in test [2] (setting [9]), more than 10 µM. Moreover, the “3H-Dopamine, Olfactory Tubercles, percent fractional release” value in test [3] (setting [10]) is on record as 8.75%. For the same compound, the “3H-Dopamine, Striatum, percent fractional release” value in test [4] (setting [11]) was 6.00%. The “3H-Norepinephrine, Hippocampus, percent fractional release” value in test [5] (setting [12]) came to 1.91%. Besides, the “3H-Norepinephrine, Prefrontal Cortex, percent fractional release” value in test [6] (setting [13]) is reported as 1.82%. The “3H-Norepinephrine, Thalamus, percent fractional release” value in test [7] (setting [14]) is recorded as 1.44%.

Turning to `Oc1ccc(-c2cncc(CN3CCCC3)c2)cc1` [5-(4-hydroxyphenyl)-3-(N-pyrrolidinomethyl)pyridine], the 50% inhibitory concentration (IC50) is 0.082 µM in test [1] (setting [8]) and more than 10 µM in test [2] (setting [9]). Also, the “3H-Dopamine, Olfactory Tubercles, percent fractional release” value in test [3] (setting [10]) turned out to be 6.12%. Further, the “3H-Dopamine, Striatum, percent fractional release” value in test [4] (setting [11]) came out at 4.32%. For the same compound, in test [5] (setting [12]), the “3H-Norepinephrine, Hippocampus, percent fractional release” value is 1.06%. Further, the “3H-Norepinephrine, Prefrontal Cortex, percent fractional release” value in test [6] (setting [13]) was determined as 1.24%. Besides, the “3H-Norepinephrine, Thalamus, percent fractional release” value in test [7] (setting [14]) is 2.36%.

Consider `c1ccc(-c2cncc(CN3CCC3)c2)cc1` [5-Phenyl-3-(N-azetidinomethyl)pyridine fumarate], for which the IC50 in test [1] (setting [8]) amounted to 1.2 µM; in test [2] (setting [9]), 6 µM.

On to `c1ccc(-c2cncc(CN3CCCC3)c2)cc1` [5-Phenyl-3-(N-pyrrolidinomethyl)pyridine], for which the IC50 in test [1] (setting [8]) worked out at 0.53 µM; in test [2] (setting [9]) it was 11.2 µM. Moreover, in test [3] (setting [10]), the “3H-Dopamine, Olfactory Tubercles, percent fractional release” value worked out at 3.68%. Further, the “3H-Dopamine, Striatum, percent fractional release” value in test [4] (setting [11]) came out at 2.48%. Also, the “3H-Norepinephrine, Hippocampus, percent fractional release” value in test [5] (setting [12]) is given as 0.74%. Further, the “3H-Norepinephrine, Prefrontal Cortex, percent fractional release” value in test [6] (setting [13]) is 1.43%. In addition, in test [7] (setting [14]), the “3H-Norepinephrine, Thalamus, percent fractional release” value was found to be 1.42%.

As to `C#Cc1cncc(CN2CCCC2)c1` [5-ethynyl-3-(N-pyrrolidinomethyl)pyridine], the results for the 50% inhibitory concentration (IC50) in test [1] and in test [2] were 0.041 µM and more than 100 µM, respectively. For the same compound, in test [3] (setting [10]), the “3H-Dopamine, Olfactory Tubercles, percent fractional release” value was found to be 0.91%. Besides, in test [4] (setting [11]), the “3H-Dopamine, Striatum, percent fractional release” value worked out at 2.09%. Moreover, in test [5] (setting [12]), the “3H-Norepinephrine, Hippocampus, percent fractional release” value was found to be 0.97%. For the same compound, the “3H-Norepinephrine, Prefrontal Cortex, percent fractional release” value in test [6] (setting [13]) is reported as 0.84%. The “3H-Norepinephrine, Thalamus, percent fractional release” value in test [7] (setting [14]) was 0.67%.

As to `c1cncc(CNC2CC2)c1` [N-Cyclopropyl-3-picolylamine], the half-maximal inhibitory concentration (IC50) in test [1] (setting [8]) was 40 µM; in test [2] (setting [9]), more than 100 µM.

Consider `CN(Cc1cccnc1)C1CC1` [N-Methyl-N-cyclopropyl-3-picolylamine], for which the 50% inhibitory concentration (IC50) in test [1] (setting [8]) was 16 µM; in test [2] (setting [9]), more than 100 µM.

In the case of `CN(CCCc1ccccc1)Cc1cccnc1` [N-Methyl-N-phenylpropyl-3-picolylamine], the IC50 in test [1] (setting [8]) came to 34 µM; in test [2] (setting [9]) it was 36 µM.

Turning to `c1ccc(CCCNCc2cccnc2)cc1` [N-Phenylpropyl-3-picolylamine], the figures for the IC50 in test [1] (setting [8]) and in test [2] (setting [9]) were 20 µM and 29 µM, respectively.

`CN1CCCC1c1cccnc1` (stereo not drawn) [Nicotine, reference compound]: the “3H-Dopamine, Olfactory Tubercles, percent fractional release” value in test [3] is on record as 2.7 ± 0.4. Besides, the “3H-Dopamine, Striatum, percent fractional release” value in test [4] stood at 2.3 ± 0.7. Also, in test [5], the “3H-Norepinephrine, Hippocampus, percent fractional release” value is reported as 8.2 ± 1.5. Further, the “3H-Norepinephrine, Prefrontal Cortex, percent fractional release” value in test [6] was 2.2 ± 0.2. In test [7], the “3H-Norepinephrine, Thalamus, percent fractional release” value turned out to be 1.7.

As for `CC(c1cccnc1)N(C)C` (stereo not drawn) [α-Methyl-N,N-dimethyl-3-picolylamine], in test [1] (setting [8]), the IC50 is 1.9 µM. The “displacement of ligand with 100 μM of compound (Quinuclidinyl benzilate)” value in test [2] (100 μM compound, 3H-QNB, rat cerebral membranes) is “Less than 20%”.

Take `CC(NC1CC1)c1cccnc1` (stereo not drawn) [α-Methyl-N-cyclopropyl-3-picolylamine]: the IC50 in test [1] (setting [8]) and in test [2] (setting [9]) was more than 100 µM in each case.

In the case of `CC(C)NC(C)c1cccnc1` (stereo not drawn) [α-Methyl-N-isopropyl-3-picolylamine], the results for the 50% inhibitory concentration (IC50) in test [1] (setting [8]) and in test [2] (setting [9]) were 19 µM and more than 100 µM, respectively.

Consider `CNC(C)c1cccnc1` (stereo not drawn) [α-Methyl-N-methyl-3-picolylamine], for which the concentration for half-maximal inhibition (IC50) in test [1] (setting [8]) was 3.6 µM; in test [2] (setting [9]) it was more than 100 µM.
